Assay results from patent US11578055B2, “Triazacyclododecansulfonamide (“TCD”)-based protein secretion inhibitors” (KEZAR LIFE SCIENCES, priority 2018, dated 2023).
Like-named read-outs stand apart in the source and are kept apart here.

Assays:
[1] = tested on: target signal sequences plus 10 amino acids fused to Gaussia Luciferase; test: Transiently Expressed Dox Induced Signal Sequence-Gluc Assay; type: cell-based; settings: read-out: Signal Sequence-Gluc potency
Description: FIp-In 293 T-REx™ cells were transfected with 500 ng pcDNA™5/FRT/TO plasmids inserted with cDNA encoding Gaussia Luciferase fused to the 3′ end of cDNA encoding target signal sequences plus 10 amino acids. Transfected cells were incubated overnight then cells were trypsinized and plated in 384-well tissue culture plates. The next day, compound dilutions in DMSO/media containing doxycycline were added to the wells and incubated at 37° C., 5% CO2.

[2] = In Vitro Microsome Stability Assay (human); type: in vitro ADME; settings: human liver microsomes, 30 min w/ NADPH
Summary of the method: (§1)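 Species liver microsomes in potassium phosphate buffer were preincubated at 37 °C for 3–5 min with test compound (added from 0.25 mM DMSO stock), then started with NADPH. Samples at 0 and 30 min were quenched with acetonitrile containing internal standard and analysed by LC-MS/MS; % remaining at 30 min used analyte/IS AUC ratios relative to t=0.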

[3] = tested on: PD1 signal sequence plus 10 amino acids fused to Gaussia Luciferase (PD1-ss+10aa/Gaussia Luciferase); test: Dox Induced PD1-ss-Gluc Assay; type: cell-based; settings: 24 hr, Dox inducible, 293FRT/TO cells; read-out: 24 hr Dox Inducible PD1ssGluc 293FRT/TO: Mean IC50
Summary of the method: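 Stable Flp-In 293 T-REx line expressing the fusion under tetracycline-inducible control, plated the day before assay. Compound dilutions added with doxycycline and incubated at 37 °C, 5% CO2; unspecified stereocentres mean data refer to stereoisomer mixtures.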

[4] = In Vitro Microsome Stability Assay (mouse); type: in vitro ADME; settings: mouse liver microsomes, 30 min w/ NADPH
Summary of the method: as §1

[5] = In Vitro Microsome Stability Assay (rat); type: in vitro ADME; settings: rat liver microsomes, 30 min w/ NADPH
Summary of the method: as §1

[6] = tested on: Human PBMC; test: Human PBMC CellTiter-Glo viability; type: cell-based; settings: no stimulation, 24 hours
Description: (§2) Human PBMC were freshly isolated from whole blood collections of 3 normal donors utilizing density gradient centrifugation followed by red blood cell lysis. PBMC from each donor were assayed separately. Cells were suspended in RPMI 1640 media supplemented with 5% fetal bovine serum, 2 mM L-glutamine, 10 mM HEPES, and 1× penicillin/streptomycin. PBMC were seeded at 200,000 cells/well in 96-well round-bottom plates either without stimulation or with stimulation by lipopolysaccharide (LPS, 1 μg/mL) or antibodies against human CD3 (plate-bound, 2 μg/mL) and human CD28 (soluble, 2 μg/mL). Serial dilutions of compound in DMSO/media were simultaneously added and PBMC were incubated at 37° C., 5% CO2 for 24 hours. After 24 hours, plates were centrifuged and half of the supernatant volume removed for cytokine analysis by electrochemiluminescent immunoassay (U-PLEX® Biomarker Multiplex, Meso Scale Discovery). For viability analysis, CellTiter-Glo® (Promega) was added to the remaining material in each well and quantified via luminescent plate reader.

[7] = tested on: IL-23; test: Human PBMC Cytokine Assay: IL-23; type: cell-based; settings: LPS stimulation, 24 hours
Description: as §2

[8] = tested on: TNFα; test: Human PBMC Cytokine Assay: TNFα; type: cell-based; settings: anti-CD3/CD28 stimulation, 24 hours
Description: as §2

[9] = tested on: IFNγ; test: Human PBMC Cytokine Assay: IFNγ; type: cell-based; settings: anti-CD3/CD28 stimulation, 24 hours
Description: as §2

[10] = tested on: IL-1β; test: Human PBMC Cytokine Assay: IL-1β; type: cell-based; settings: LPS stimulation, 24 hours
Description: as §2

[11] = tested on: GM-CSF; test: Human PBMC Cytokine Assay: GM-CSF; type: cell-based; settings: anti-CD3/CD28 stimulation, 24 hours
Description: as §2

[12] = tested on: IL-2; test: Human PBMC Cytokine Assay: IL-2; type: cell-based; settings: anti-CD3/CD28 stimulation, 24 hours
Description: as §2

[13] = tested on: IL-6; test: Human PBMC Cytokine Assay: IL-6; type: cell-based; settings: LPS stimulation, 24 hours
Description: as §2

Question: For `C[C@H]1CN(S(=O)(=O)c2ccc(N(C)C)cc2)CCCN(CC2CCCCC2)CCCN(S(=O)(=O)N2CCc3c(C#N)cccc3C2)C1` [A151, 2-{[(3S)-9-(cyclohexylmethyl)-5-[4-(dimethylamino)benzenesulfonyl]-3-methyl-1,5,9-triazacyclododecan-1-yl]sulfonyl}-1,2,3,4-tetrahydroisoquinoline-5-carbonitrile], which IC50 ([1]; Target ADAM10 signal peptide +10 amino acids) is on record?
Answer: 849 nM

Question: What about the IC50 ([1]; Target B7H3 signal peptide +10 amino acids) of the same molecule?
Answer: 201 nM

Question: And the IC50 ([1]; Target CD73 signal peptide +10 amino acids)?
Answer: 375 nM

Question: What about the IC50 ([1]; Target CD96 signal peptide +10 amino acids) of the same molecule?
Answer: 107 nM

Question: What about the IC50 ([1]; Target CTLA-4 signal peptide +10 amino acids) of the same molecule?
Answer: 1140 nM

Question: What about the IC50 ([1]; Target EGFR signal peptide +10 amino acids) of the same molecule?
Answer: 412 nM

Question: And the IC50 ([1]; Target GP130 signal peptide +10 amino acids)?
Answer: 969 nM

Question: What about the IC50 ([1]; Target HER3 signal peptide +10 amino acids) of the same molecule?
Answer: 522 nM

Question: What about the IC50 ([1]; Target IFN-a1 signal peptide +10 amino acids) of the same molecule?
Answer: 820 nM

Question: What about the IC50 ([1]; Target IFN-a2 signal peptide +10 amino acids) of the same molecule?
Answer: 404 nM

Question: What about the IC50 ([1]; Target IFN-a4 signal peptide +10 amino acids) of the same molecule?
Answer: 1130 nM

Question: And the IC50 ([1]; Target IFN-b signal peptide +10 amino acids)?
Answer: 4300 nM

Question: What about the IC50 ([1]; Target IFNAR1 signal peptide +10 amino acids) of the same molecule?
Answer: 145 nM

Question: And the IC50 ([1]; Target IFNAR2 signal peptide +10 amino acids)?
Answer: 778 nM

Question: What about the IC50 ([1]; Target IL-1R1 signal peptide +10 amino acids) of the same molecule?
Answer: 1470 nM

Question: And the IC50 ([1]; Target IL-1R2 signal peptide +10 amino acids)?
Answer: 168 nM

Question: What about the IC50 ([1]; Target IL-1Ra (isoform 1) signal peptide +10 amino acids) of the same molecule?
Answer: 666 nM

Question: And the IC50 ([1]; Target IL-2Ra (CD25) signal peptide +10 amino acids)?
Answer: 876 nM

Question: And the IC50 ([1]; Target IL-6R signal peptide +10 amino acids)?
Answer: 445 nM

Question: What about the IC50 ([1]; Target IL-6 signal peptide +10 amino acids) of the same molecule?
Answer: 437 nM

Question: What about the IC50 ([1]; Target IL-7R signal peptide +10 amino acids) of the same molecule?
Answer: 392 nM

Question: And the IC50 ([1]; Target IL-12b (p40) signal peptide +10 amino acids)?
Answer: 913 nM

Question: And the IC50 ([1]; Target IL-17Ra signal peptide +10 amino acids)?
Answer: 1860 nM

Question: What about the IC50 ([1]; Target IL-17a signal peptide +10 amino acids) of the same molecule?
Answer: 1820 nM

Question: And the IC50 ([1]; Target IL-23R signal peptide +10 amino acids)?
Answer: 666 nM

Question: And the IC50 ([1]; Target IL-23a signal peptide +10 amino acids)?
Answer: 1920 nM

Question: And the IC50 ([1]; Target LAG3 signal peptide +10 amino acids)?
Answer: 464 nM

Question: And the IC50 ([1]; Target PD-L1 signal peptide +10 amino acids)?
Answer: 366 nM

Question: What about the IC50 ([1]; Target PDGFRa signal peptide +10 amino acids) of the same molecule?
Answer: 565 nM

Question: What about the IC50 ([1]; Target TACE (ADAM17) signal peptide +10 amino acids) of the same molecule?
Answer: 391 nM

Question: And the IC50 ([1]; Target TIGIT signal peptide +10 amino acids)?
Answer: 737 nM

Question: What about the IC50 ([1]; Target TIM3 signal peptide +10 amino acids) of the same molecule?
Answer: 1350 nM

Question: What about the IC50 ([1]; Target TNFR1 signal peptide +10 amino acids) of the same molecule?
Answer: 1620 nM

Question: What about the IC50 ([1]; Target TNFR2 signal peptide +10 amino acids) of the same molecule?
Answer: 2110 nM

Question: And the IC50 ([1]; Target VEGF signal peptide +10 amino acids)?
Answer: 645 nM

Question: And the IC50 ([1]; Target VGFR2 signal peptide +10 amino acids)?
Answer: 2590 nM

Question: And the IC50 ([1]; Target VISTA signal peptide +10 amino acids)?
Answer: 911 nM

Question: What about the “Liver Microsome Stability-% Left after 30 min w/ NADPH (%) Human” value [2] of the same molecule?
Answer: 4.28%

Question: What about the IC50 [3] of the same molecule?
Answer: 153 nM

Question: What about the “Liver Microsome Stability-% Left after 30 min w/ NADPH (%) Mouse” value [4] of the same molecule?
Answer: 4.55%

Question: And the “Liver Microsome Stability-% Left after 30 min w/ NADPH (%) Rat” value [5]?
Answer: 4.2%

Question: For `COc1cc(F)ccc1N1CCN(S(=O)(=O)N2CCCN(CC3CCCCC3)CCCN(S(=O)(=O)c3ccc(N(C)C)cc3)C[C@H](C)C2)C[C@H]1C` [A177, 4-{[(3S)-9-(cyclohexylmethyl)-5-{[(3 R)-4-(4-fluoro-2-methoxyphenyl)-3-methylpiperazin-1-yl]sulfonyl}-3-methyl-1,5,9-triazacyclododecan-1-yl]sulfonyl}-N,N-dimethylaniline], which IC50 [6] is on record?
Answer: > 25000 nM

Question: And the IC50 [7]?
Answer: 54 nM

Question: What about the IC50 [8] of the same molecule?
Answer: 13 nM

Question: What about the IC50 [9] of the same molecule?
Answer: 19 nM

Question: What about the IC50 [10] of the same molecule?
Answer: > 25000 nM

Question: And the “Liver Microsome Stability-% Left after 30 min w/ NADPH (%) Human” value [2]?
Answer: 13.7%

Question: What about the IC50 [3] of the same molecule?
Answer: 4.95 nM

Question: And the IC50 [11]?
Answer: 19 nM

Question: And the “Liver Microsome Stability-% Left after 30 min w/ NADPH (%) Mouse” value [4]?
Answer: 11.6%

Question: And the IC50 [12]?
Answer: 10 nM

Question: And the “Liver Microsome Stability-% Left after 30 min w/ NADPH (%) Rat” value [5]?
Answer: 14.5%

Question: And the IC50 [13]?
Answer: 24 nM
